Assay results as given in the supplement of paper PMC10307832.

Key:
Assay in all cases: relative viability (nuclei count vs DMSO), 5 days (fraction); higher = more cells survive
Selisistat + Crizotinib = compound: C1CC(C2=C(C1)C3=C(N2)C=CC(=C3)Cl)C(=O)N [Selisistat] + C[C@@H](Oc1cc(-c2cnn(C3CCNCC3)c2)cnc1N)c1c(Cl)ccc(F)c1Cl [Crizotinib] (partner 1 µM)
Summary of the method: (§1)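 After 5 days of treatment, lung cancer cells in 1536-well plates were fixed and stained in a single step (final 0.05% Triton X-100, 1% formaldehyde, 1 ug/ml Hoechst) and their nuclei counted on 4× images. Treatment had been applied by pin tool the day after seeding as one drug alone or as a fixed anchor-drug dose with five library-drug doses (not always all listed) in √10 steps. Relative viability is the nuclei count of treated wells divided by that of vehicle wells, and values are medians of duplicate plates.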

Serdemetan + Navitoclax = compound: c1ccc2c(CCNc3ccc(Nc4ccncc4)cc3)c[nH]c2c1 [Serdemetan] + CC1(C)CCC(c2ccc(Cl)cc2)=C(CN2CCN(c3ccc(C(=O)NS(=O)(=O)c4ccc(N[C@H](CCN5CCOCC5)CSc5ccccc5)c(S(=O)(=O)C(F)(F)F)c4)cc3)CC2)C1 [Navitoclax] (partner 0.5 µM)
Summary of the method: as §1

Serdemetan + Luminespib = compound: c1ccc2c(CCNc3ccc(Nc4ccncc4)cc3)c[nH]c2c1 [Serdemetan] + CCNC(=O)c1noc(-c2cc(C(C)C)c(O)cc2O)c1-c1ccc(CN2CCOCC2)cc1 [Luminespib] (partner 0.01 µM)
Summary of the method: as §1

Serdemetan + Dasatinib = compound: c1ccc2c(CCNc3ccc(Nc4ccncc4)cc3)c[nH]c2c1 [Serdemetan] + Cc1nc(Nc2ncc(C(=O)Nc3c(C)cccc3Cl)s2)cc(N2CCN(CCO)CC2)n1 [Dasatinib] (partner 0.075 µM)
Summary of the method: as §1

Cell Line	relative viability (Selisistat + Crizotinib; first compound 0.4 µM)	relative viability (Selisistat + Crizotinib; first compound 1.265 µM)	relative viability (Selisistat + Crizotinib; first compound 4 µM)	relative viability (Selisistat + Crizotinib; first compound 12.65 µM)	relative viability (Selisistat + Crizotinib; first compound 40 µM)	relative viability (Serdemetan + Navitoclax; first compound 0.04 µM)	relative viability (Serdemetan + Navitoclax; first compound 0.1265 µM)	relative viability (Serdemetan + Navitoclax; first compound 0.4 µM)	relative viability (Serdemetan + Navitoclax; first compound 1.265 µM)	relative viability (Serdemetan + Navitoclax; first compound 4 µM)	relative viability (Serdemetan + Luminespib; first compound 0.04 µM)	relative viability (Serdemetan + Luminespib; first compound 0.1265 µM)	relative viability (Serdemetan + Luminespib; first compound 0.4 µM)	relative viability (Serdemetan + Luminespib; first compound 1.265 µM)	relative viability (Serdemetan + Luminespib; first compound 4 µM)	relative viability (Serdemetan + Dasatinib; first compound 0.04 µM)	relative viability (Serdemetan + Dasatinib; first compound 0.1265 µM)	relative viability (Serdemetan + Dasatinib; first compound 0.4 µM)	relative viability (Serdemetan + Dasatinib; first compound 1.265 µM)	relative viability (Serdemetan + Dasatinib; first compound 4 µM)
NCI-H1755	0.917	0.927	0.952	0.82	0.946	0.973	0.976	0.867	0.527	0.448	0.417	0.43	0.568	0.39	0.343	0.414	0.446	0.404	0.24	0.306
NCI-H1792	1.01	1.02	–	0.907	0.965	0.655	0.587	0.551	0.355	0.476	0.471	0.407	0.422	0.415	0.298	0.746	0.773	0.747	0.533	0.493
NCI-H1915	0.917	0.87	0.883	0.885	0.908	0.815	0.759	0.78	0.372	0.687	0.74	0.73	0.672	0.514	0.532	0.3	0.316	0.314	0.287	0.302
NCI-H1944	1.13	1.01	–	1.09	1.04	1.07	1.04	0.978	–	0.376	0.664	0.679	0.691	0.249	0.306	0.201	0.212	0.218	0.131	0.164
NCI-H1975	0.904	0.863	0.916	0.854	0.807	1.01	0.998	1.2	1.05	1.24	0.371	0.393	0.176	0.18	0.17	0.373	0.418	0.361	–	0.352
NCI-H1993	0.803	0.92	–	0.987	0.854	0.952	0.92	0.78	–	0.875	0.981	0.778	0.811	0.768	0.758	0.578	0.698	0.517	0.507	0.461
NCI-H2009	1.09	1.02	1	0.989	0.906	1.11	1.12	1.17	1.06	1.01	0.925	0.979	0.997	1.01	0.888	0.315	0.326	0.31	0.25	0.221
NCI-H2023	0.69	0.651	0.636	0.68	0.576	0.929	1.05	0.99	0.682	0.344	0.818	0.857	0.721	0.334	0.193	0.521	0.674	0.532	0.43	0.233
NCI-H2085	0.893	0.702	0.886	0.864	0.951	1.16	1.01	1.04	0.815	0.685	0.454	0.394	0.457	0.382	0.354	0.242	0.222	0.278	0.269	0.166
NCI-H2087	0.847	0.77	1.13	0.763	0.784	1.05	1	0.715	0.467	0.64	0.176	0.147	0.168	0.184	0.123	0.979	0.712	0.763	0.418	0.27
NCI-H2126	1.1	0.976	0.992	1.01	1.12	0.841	0.869	0.795	0.704	0.825	0.983	0.964	0.9	0.88	1.01	0.643	0.665	0.517	0.467	0.557
NCI-H2170	1.2	1.16	1.22	1.15	1.26	0.591	0.705	0.52	0.554	0.601	0.643	0.596	0.807	0.459	0.56	0.437	0.612	0.474	0.513	0.569
NCI-H2228	0.529	0.49	0.362	0.442	0.379	0.878	0.782	0.86	0.34	0.199	0.119	0.201	0.159	0.16	0.145	0.44	0.473	0.485	0.188	0.184
NCI-H2347	0.814	0.946	0.566	0.813	0.84	0.737	0.779	0.712	0.624	0.374	1.08	0.56	0.215	0.264	0.292	0.336	0.305	0.286	0.303	0.237
NCI-H2405	0.825	0.807	0.787	0.833	0.832	0.813	1.03	1.01	0.921	0.721	0.716	0.664	0.64	0.573	0.596	0.173	0.217	0.21	0.209	0.133
NCI-H3122	0.315	0.235	0.218	0.296	0.266	0.975	0.951	1	–	1.04	0.0976	0.0835	0.115	–	0.101	0.827	0.792	0.919	–	0.782
PC-3 [JPC-3]	1.02	1.01	0.936	1.01	1.07	0.747	0.713	–	0.76	0.762	0.651	0.612	0.621	0.654	0.494	0.973	0.95	1.01	0.924	0.941
